Literature values as cited in US8222294B2, “Combinations of an anti emetic agent and an enkephalinase inhibitor” (Bioproject, priority 2004, dated 2012).

System: cholera toxins
Details: cited from earlier work

| SMILES | antisecretory activity |
| --- | --- |
| CC(=O)SC[C@H](Cc1ccccc1)C(=O)NCC(=O)OCc1ccccc1 [dexecadotril] | active |
| Cc1nccn1CC1CCc2c(c3ccccc3n2C)C1=O (stereo not drawn) [ondansetron] | not |
| CC(=O)SCC(Cc1ccccc1)C(=O)NCC(=O)OCc1ccccc1 (stereo not drawn) [racecadotril] | active |
